Here are results for 6 compounds from US20250049966A1, “SMALL MOLECULE TRACER FOR IMAGING ALPHA-SYNUCLEIN AGGREGATES” (Fudan University, priority 2021, published 2025).

For data set [1], the target named is T1, human α-synuclein aggregates (Homo sapiens, UniProt P37840).
T1 construct: made in house; host or cells: E. coli BL21 (DE3)
The data set is described as follows: Fluorescence saturation binding of compounds to α-synuclein aggregates. As to the method: 1 μL ampicillin anti-plasmid with α-synuclein in the correct sequence was mixed with 100 μL BL21 (DE3) receptive cells, cooled in an ice bath, added in 600 μL LB medium, and cultured in a 220 rpm shaking bed at 37° C. for 90 min. 150 μL cultured bacterial solution was added to the sterilized dish coated with ampicillin medium evenly. Positive clonal colonies were selected and added to the configured ampicillin medium and cultured in an incubator at 37° C. The cultured positive clones were poured into 1 L of 2×YT medium and cultured in a 220 rpm shaker at 37° C. to make OD 600 0.6 and then cooled to 18° C. Each medium was induced to culture for 16 hours by adding 1 ml of IPTG (500 mM).
The bacteria were centrifuged at high speed for 30 min after ultrasonic. The supernatant was collected to remove DNA and hetero-proteins by Ni-NTA chromatography. α-synuclein monomer was purified by molecular exclusion chromatography and the purity was verified by SDS-PAGE discontinuous electrophoresis.
α-synuclein monomers were prepared into a buffer solution containing 1×PBS, wherein the final protein concentration was 100 μM (about 5 mg/mL), and incubated in a 1000 rpm shaker at 37° C. for 7 days to obtain α-synuclein aggregates. The initial and final concentrations of the monomer protein were determined by the BCA method.
10 mM mother solution of DMSO was prepared from 1 mg of the compound, then diluted to 20 μM with PBS, and made gradient dilution 7 times (3× each dilution); 30 μL of test compound was added to the 384-well plate, following the experimental group was added to 30 μL α-synuclein aggregates (3 μM), and the control group was added to the same amount of PBS. After the 384-well plate was incubated shaking at 50 rpm at room temperature for 1 hour, the plate was taken out to detect the maximum absorption and emission wavelengths of the compound with an ELISA Microplate Reader, and the fluorescence values were detected at these wavelengths, too. The fluorescence changes in different concentrations of compounds were calculated using the experimental group data minus the control group data, and the protein-binding affinity of compounds was obtained using the Saturation binding module of GraphPad Prism.
The binding affinity of the Formula I compound to α-synuclein aggregates is determined by the above method, and the dissociation equilibrium constant Kd is shown in Table 1.

Data set [2] deals with T2, Lewy bodies and Lewy neurites (α-synuclein lesions) (Homo sapiens, UniProt P37840).
T2 construct: from tissue; host or cells: human amygdala, DLB patient, fresh frozen sections
The experiment in a line: Fluorescence staining of brain slices from patients of dementia with Lewy body (DLB). Particulars: for Staining of Lewy bodies and Lewy neurites in DLB patient brain slices: 30 μM compound, frozen amygdala sections 20 μm, fluorescence microscopy, FIG. 1; for Binding to α-synuclein pathological tissue compared with Aβ and Tau pathological tissue (selectivity): DLB versus AD brain slices, FIG. 1 and FIG. 2. It is filed as binding. As to the method:
Brain slices from patients with dementia with Lewy bodies were taken from the amygdala of a deceased person in stage 2 of dementia with Lewy bodies. Frozen sections of the amygdala with rich α-synuclein were performed with a thickness of 20 μm.
(§1) The tested compound was diluted to 30 μM with PBS solution containing 50% EtOH, following incubated with the fresh frozen brain sections at room temperature for 30 minutes, then washed with 50% ethanol solution for 5 minutes and ultra-pure water twice for 3 minutes each time in sequence. After the sections were buried with an embedding agent (VECTASHIELD H-1000, Vector Laboratories), images of the lesion accumulation area on the sections were obtained by fluorescence microscopy. Analysis software (Image J) was used to quantify the fluorescence radiance of both the lesion area and the area of the non-forming lesion (background) to evaluate binding selectivity.

For the next data set, the target named is T3, Aβ lesions (Homo sapiens, UniProt P05067).
T3 construct: from tissue
The data set is described as follows: Fluorescence staining of brain slices from patients with Alzheimer's disease (AD), Aβ. Particulars: 30 μM compound, superior temporal gyrus sections 6 μm, fluorescence microscopy, FIG. 2. It is filed as binding. As to the method: as §1
(§2) The dewaxed brain tissue was fixed in a 10% neutral buffer of formalin solution, embedded with paraffin, and then sliced with a thickness of 6 μm. The staining method is the same as the above method for DLB patients.

Data set [3] deals with Tau neurofibrillary filaments. The data set is described as follows: Fluorescence staining of brain slices from patients with Alzheimer's disease (AD), Tau. It is filed as binding, human. Conditions: 30 μM compound, superior temporal gyrus sections 6 μm, fluorescence microscopy, FIG. 2. Here is the method: as §1, §2
Data set [4] is described as follows: Blood-brain barrier permeability test, rat tail vein injection. It is filed as in vivo. Conditions: brain / blood supernatant after centrifugation, intravenous, SD rats, 5 mg/kg tail vein, 20 min after administration, LC-MS/MS, read-out: brain/blood ratio. Here is the method:
The compound of the invention is injected into a rat tail vein to determine the blood-brain barrier permeability in vivo according to the following method.
Dissolve the tested compound in DMSO, and add castor oil and PBS for dilution (DMSO:castor oil:PBS=1:1:8). SD rats were weighed and given 5 mg/kg in the tail vein. 500 μL of blood was taken 20 min after administration after anesthetized with isoflurane. Cardiac perfusion was performed with 200 mL PBS and stopped until the organ faded, following brain tissue was got out and washed with PBS.
After centrifuging the extracted blood at 9000 rpm for 5 min, 200 μL supernatant was taken and added 800 μL methanol. After centrifuging at 14000 rpm for 10 min, the supernatant was taken and filtered through a 0.22 μm filter membrane and stored at −80° C. for use.
2 mL PBS and 2 mL methanol were added to about 0.5 g of brain tissue to make a tissue homogenization, and then 1 mL homogenate was taken out and centrifuged at 14,000 rpm for 10 min after 2 mL methanol was added, 1 mL supernatant was taken through 0.22 μm filter membrane and stored at −80° C. for use. The concentration of compounds in the above supernatant of blood and brain homogenate were checked by LC-MS/MS, respectively.

Where [5] appears, read: fluorescence method, α-synuclein aggregates (3 μM), room temperature 1 hour, read-out: Binding affinity (Kd) on human α-synuclein aggregates.

“Also recorded” adds a separate entry of the source. Read-outs that look alike come from different tables or passages of the source. A value given as a limit tells only on which side of the number the result lay.

T3 sequence (P05067 672-713 limits assumed): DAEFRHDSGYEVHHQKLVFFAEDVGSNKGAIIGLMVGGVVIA

For `CN1CCN(c2ccc3oc(-c4ccc(N(C)C)nc4)nc3c2)C(=O)C1` [I-4], the Kd in data set [1] is 0.1 to 0.2 µM. Further, in data set [2], the “Staining of Lewy bodies and Lewy neurites in DLB patient brain slices” value (shortened to “Staining … in DLB patient brain slices”) is “can stain Lewy bodies and Lewy neurites; also recorded: can well label the α-synuclein in Lewy bodies and Lewy neurites”; the “Binding to α-synuclein pathological tissue compared with Aβ and Tau pathological tissue (selectivity)” value was “significantly stronger”. The “Staining/binding of Aβ lesions in AD patient brain slices” value (from here on “Staining/binding of Aβ lesions”) at Aβ lesions is “could also detect Aβ lesions; also recorded: very weak binding”. In addition, in data set [3], the “Staining/binding of Tau neurofibrillary filaments in AD patient brain slices” value is recorded as “fail to Tau neurofibrillary filaments; also recorded: no binding”. In addition, in data set [4], the Kp at 20 min was at least 1.

For the compound `CN(C)c1ccc(-c2nc3cc(-c4cccnc4)ccc3o2)cn1` [I-1], the Kd in data set [1] (setting [5]) lay within 0.5 to 1 µM.

Consider `Fc1ccc(-c2ccc3nc(-c4ccc(N5CCCC5)nc4)oc3c2)cn1` [I-6], for which the Kd in data set [1] (setting [5]) is 0.2 to 0.5 µM. In addition, in data set [2], the “Staining … in DLB patient brain slices” value is “can stain Lewy bodies and Lewy neurites; also recorded: can well label the α-synuclein in Lewy bodies and Lewy neurites”; the “Binding to α-synuclein pathological tissue compared with Aβ and Tau pathological tissue (selectivity)” value is reported as “significantly stronger”. The “Staining/binding of Aβ lesions” value at Aβ lesions was “could also detect Aβ lesions; also recorded: very weak binding”. Moreover, the “Staining/binding of Tau neurofibrillary filaments in AD patient brain slices” value in data set [3] is on record as “fail to Tau neurofibrillary filaments; also recorded: no binding”. Moreover, the Kp at 20 min in data set [4] was at least 1.

Regarding `CN(C)c1ccc(-c2nc3cc(-c4cccnc4)ccc3o2)cc1` [I-2], the Kd in data set [1] (setting [5]) was in the range of 0.5 to 1 µM.

For `Fc1ccc(-c2ccc3oc(-c4ccc(N5CCCC5)nc4)nc3c2)cn1` [I-5], in data set [1] (setting [5]), the Kd fell in the range of 0.2 to 0.5 µM. Besides, in data set [2], the “Staining … in DLB patient brain slices” value was “can stain Lewy bodies and Lewy neurites; also recorded: can well label the α-synuclein in Lewy bodies and Lewy neurites”; the “Binding to α-synuclein pathological tissue compared with Aβ and Tau pathological tissue (selectivity)” value was “significantly stronger”. The “Staining/binding of Aβ lesions” value on Aβ lesions is “could also detect Aβ lesions; also recorded: very weak binding”. Moreover, the “Staining/binding of Tau neurofibrillary filaments in AD patient brain slices” value in data set [3] is listed as “fail to Tau neurofibrillary filaments; also recorded: no binding”. The Kp at 20 min in data set [4] was at least 1.

For the compound `CN(C)c1ccc(-c2nc3cc(N4CCN(CCF)CC4=O)ccc3o2)cn1` [I-10], the Kd in data set [1] (setting [5]) was in the range of 0.2 to 0.5 µM.

In general, Kd refers to a measure of binding affinity in units of concentration.
